Laboratory results from ChEMBL document CHEMBL4043090 (Bioorg Med Chem, 2017).

Key:
[1] = test system: Human immunodeficiency virus 1; experiment: Antiviral activity against HIV-1 Bal infected in human MAGI-CCR5 cells assessed as reduction in viral infection after 48 hrs by fluorescence based beta-galactosidase reporter gene assay; format: functional, cell-based; conditions: for IC50 / IC90: Human immunodeficiency virus 1, Bal, MAGI-CCR5, 48 h
[2] = Therapeutic index, ratio of TC50 for human MAGI-CCR5 cells to IC50 for HIV-1 Bal infected in MAGI-CCR5 cells
[3] = Cytotoxicity against human PBMC assessed as reduction in cell viability by MTS assay; format: cell-based; conditions: read-out: TC50 (the source's name)
[4] = Cytotoxicity against human MAGI-CCR5 cells assessed as reduction in cell viability after 48 hrs by MTS assay; format: cell-based; conditions: read-out: TC50
[5] = Therapeutic index, ratio of TC50 for human PBMC to IC50 for HIV-1 Bal infected in human PBMC
PBMC = experiment: Antiviral activity against HIV-1 Bal infected in human PBMC by MTS assay; format: functional, cell-based

Row | Structure (SMILES) | Activity [1] | IC50 [1] [µM] | IC90 [1] [µM] | TI [2] | CC50 [3] [µM] | CC50 at 48 h [4] [µM] | TI [5] | IC50 (PBMC) [µM] | IC90 (PBMC) [µM]
1 | CC1=C(c2nc(-c3ccc(C#N)cc3)cs2)C(c2ccc(OC(F)(F)F)cc2)NC(=O)N1 (configuration not stated) | Dose-dependent effect | 1.6 | 7.6 | 63 | > 100 | > 100 | 12 | 8.6 | 21
2 | CC1=C(c2nc(-c3ccc(C(F)(F)F)cc3)cs2)C(c2cccc(O)c2)NC(=O)N1 (configuration not stated) | Dose-dependent effect | 5.2 | 23 | 7.7 | 57 | 40 | 9.7 | 5.9 | 18
3 | CC1=C(c2nc(-c3ccc(C#N)cc3)cs2)C(c2cccnc2Cl)NC(=O)N1 (configuration not stated) | Dose-dependent effect | 2.2 | 85.5 | 46 | > 100 | > 100 | 67 | 1.5 | 8.8
4 | CC1=C(c2nc(-c3cccc(C#N)c3)cs2)C(c2cccc(O)c2)NC(=O)N1 (configuration not stated) | Dose-dependent effect | 8.7 | 38.1 | 6 | 74 | 51.8 | 15 | 5 | 15.1
5 | CC1=C(c2nc(-c3ccc(C#N)cc3)cs2)C(c2cccc(O)c2)NC(=O)N1C (configuration not stated) | Dose-dependent effect | 2.4 | 13.8 | 42 | > 100 | > 100 | 31 | 3.2 | 8.5
6 | COc1ccc(C2NC(=O)NC(C)=C2c2nc(-c3ccc(C#N)cc3)cs2)cc1O (configuration not stated) | Dose-dependent effect | 0.38 | 37.8 | 263 | > 100 | > 100 | 667 | 0.15 | 0.42
7 | CC1=C(c2nc(-c3ccc(C)cc3)cs2)C(c2cccc(O)c2)NC(=O)N1 (configuration not stated) | Dose-dependent effect | 31 | 80 | 2 | 65 | 61 | 4.1 | 16 | 48
8 | CC1=C(c2nc(-c3ccc(C#N)cc3)cs2)C(c2ccnc3ccccc23)NC(=O)N1 (configuration not stated) | Dose-dependent effect | 3.8 | 98.3 | 26 | 68.3 | > 100 | 24 | 2.9 | 10.5
9 | COc1cncc(C2NC(=O)NC(C)=C2c2nc(-c3ccc(C#N)cc3)cs2)c1 (configuration not stated) |  | 10.4 | > 100 | 9.6 |  | > 100 |  |  | 
10 | COc1ccc(-c2csc(C3=C(C)NC(=O)NC3c3cccc(O)c3)n2)cc1 (configuration not stated) | Dose-dependent effect | 66 | > 100 | 1.5 | 91 | > 100 | 3 | 30 | 78
11 | CC1=C(c2nc(-c3ccc(C#N)cc3)cs2)C(c2ccc(OCc3ccccc3)cc2)NC(=O)N1 (configuration not stated) | Dose-dependent effect | 0.13 | 0.75 | 77 | > 100 | > 10 | 476 | 0.21 | 0.6
12 | CC1=C(c2nc(-c3ccc(Br)cc3)cs2)C(c2cccc(O)c2)NC(=O)N1 (configuration not stated) | Dose-dependent effect | 2.3 | 15 | 26 | 56 | 60 | 16 | 3.6 | 12
13 | CC1=C(c2nc(-c3ccc(C#N)cc3)cs2)C(c2ccnc(Cl)c2)NC(=O)N1 (configuration not stated) | Dose-dependent effect | 3.2 | > 100 | 31 | > 100 | > 100 | 23 | 4.4 | 44.5
14 | COc1cccc(C2NC(=O)NC(C)=C2c2nc(-c3ccc(C#N)cc3)cs2)c1 (configuration not stated) | Dose-dependent effect | 0.38 | 1.8 | 263 | > 100 | > 100 | 179 | 0.56 | 1.6
15 | CC1=C(c2nc(-c3ccc4ccccc4c3)cs2)C(c2cccc(O)c2)NC(=O)N1 (configuration not stated) | Dose-dependent effect | 43 | 84 | 1.3 | 47 | 55 | 3.6 | 13 | 29
16 | CC1=C(c2nc(-c3ccc(C#N)cc3)cs2)C(c2cccnc2F)NC(=O)N1 (configuration not stated) | Dose-dependent effect | 0.44 | 2.6 | 227 | > 100 | > 100 | 385 | 0.26 | 0.83
17 | CC1=C(c2nc(-c3ccc(C#N)cc3)cs2)C(c2ccc(Oc3ccccc3)cc2)NC(=O)N1 (configuration not stated) | Dose-dependent effect | 0.12 | 0.62 | 83 | > 100 | > 10 | 189 | 0.53 | 1.8
18 | CC1=C(c2nc(-c3cccc(C#N)c3)cs2)C(c2cccc(O)c2)NC(=O)N1C (configuration not stated) | Dose-dependent effect | 55.4 | 89.2 | 1.8 | 64.2 | > 100 | 4.4 | 14.5 | 59.6
19 | COc1cccc(C2NC(=O)NC(C)=C2c2nc(-c3ccc(C#N)cc3)cs2)n1 (configuration not stated) | Dose-dependent effect | 1.6 | 14.4 | 63 | > 100 | > 100 | 63 | 1.6 | 5.9
20 | CC1=C(c2nc(-c3ccc(C#N)cc3)cs2)C(c2ccncc2F)NC(=O)N1 (configuration not stated) |  | 63.4 | > 100 | 1.6 |  | > 100 |  |  | 
21 | CC1=C(c2nc(-c3cccc(O)c3)cs2)C(c2cccc(O)c2)NC(=O)N1 (configuration not stated) | Dose-dependent effect | 68 | 98 | 1.3 | 55 | 89 | 1.4 | 40 | 85
22 | CC1=C(c2nc(-c3ccc(C#N)cc3)cs2)C(c2cncc(F)c2)NC(=O)N1 (configuration not stated) | Dose-dependent effect | 0.7 | > 100 | 143 | > 100 | > 100 | 189 | 0.53 | 1.3
23 | CC1=C(c2nc(-c3cccs3)cs2)C(c2cccc(O)c2)NC(=O)N1 (configuration not stated) |  | 49 | > 100 | 2 |  | > 100 |  |  | 
